Test results: patent US20190231748A1, “COMPOSITION FOR VAGINA AND ANTIMICROBIAL AGENT COMBINATION FOR USE IN PREPARING COMPOSITION FOR VAGINA” (Shenzhen Eulikan Biotechnology Co., Ltd., priority 2016, published 2019)

How the values were obtained:
[1] = tested on: nine strains of Candida albicans; experiment: Growth of Candida in enrichment broth after 24 hours, clinical strains; format: cell-based; details: agent alone, broth pH 4.5, 37° C. 24 hours
Source text: b. Enrichment broth: which contained 1 percent of yeast extract powder, 9 percent of sucrose, 0.025 percent of manganese sulfate (MnSO4.4H2O), 0.058 percent of magnesium sulfate (MgSO4.7H2O), and 0.9 percent of lactic acid, the pH value of the broth was adjusted to 4.5, and the enrichment broth was sterilized for later use;
(2) Experimental groups: the requirements of aseptic operation technique were strictly followed so to prepare the sterile test tubes;
a. sodium benzoate group: each test tube contained 5 milliliters enrichment broth, and was added in 0.025 percent (weight/volume) of sodium benzoate;
b. 2-phenylethanol group: each test tube contained 5 milliliters enrichment broth, and was added in 0.050 percent (weight/volume) of 2-phenylethanol;
c. sodium propionate group: each test tube contained 5 milliliters enrichment broth, and was added in 0.125 percent (weight/volume) of sodium propionate;
d. “a group of the combinations of sodium benzoate and sodium propionate”: each test tube contained 5 milliliters enrichment broth, and was added in 0.025 percent (weight/volume) of sodium benzoate and 0.125 percent (weight/volume) of sodium propionate;
e. “a group of the combinations of sodium benzoate and 2-phenylethanol”: each test tube contained 5 milliliters enrichment broth, and was added in 0.025 percent (weight/volume) of sodium benzoate and 0.050 percent (weight/volume) of 2-phenylethanol;
f. “a group of the combinations of sodium propionate and 2-phenylethanol”: each test tube contained 5 milliliters enrichment broth, and was added in 0.125 percent (weight/volume) of sodium propionate and 0.050 percent (weight/volume) of 2-phenylethanol;
g. “a group of the combinations of sodium benzoate, sodium propionate and 2-phenylethanol”: each test tube contained 5 milliliters enrichment broth, and was added in 0.025 percent (weight/volume) of sodium benzoate, 0.125 percent (weight/volume) of sodium propionate and 0.050 percent (weight/volume) of 2-phenylethanol;
h. positive control: the control tube of enrichment broth without adding in 2-phenylethanol, sodium benzoate, and sodium propionate; but inoculated the suspension of Candida albicans;
i. negative control: the control tube of enrichment broth without adding in 2-phenylethanol, sodium benzoate, and sodium propionate; and without inoculating Candida albicans;
The requirements for aseptic operation technique were strictly followed to prepare the suspension of organism. The colonies of each strain of Candida albicans organism were diluted with physiological saline respectively. The turbidities of the suspensions of Candida albicans organism were adjusted to 0.5 MCF (about 10^8 CFU/ml) by a turbidimeter. 1 milliliter of the 0.5 MCF organism suspension was added into 9 milliliters of enrichment broth. Each suspension was diluted for ten times to contain 10^7 CFU/ml of organisms.
the requirements for aseptic technique were strictly followed to take 100 microliters of the prepared organism suspension respectively and to add the suspension into the test tubes from a to h as well as the positive control tube. No organism suspension was added into the negative control tube i.
The above tubes were cultured in a biochemical incubator at 37° C. for 24 hours. Then the growth of Candida in each tube was observed and recorded.
Remark: “+” means the growth of organisms; “−” means no growth of organisms.

[2] = tested on: Lactococcus lactis and Lactobacillus jensenii; experiment: pH of test gel after co-culture of Lactococcus lactis and Lactobacillus jensenii; format: cell-based; details: cultivated 32 hours
Source text: 2.1 Experimental strains: one Lactococcus lactis strain and one Lactobacillus jensenii strain, both were clinical isolates.
The pH value was adjusted to 5.0.
2.4 Experimental procedure: the test gel tubes containing different concentrations of antimicrobial agents, as shown in Tables 1 to 6 were inoculated with 100 microliters of Lactobacillus lactis suspension and 100 microliters of Lactobacillus jensenii suspension at the same time. The turbidities of both suspensions were 0.5 MCF. Then the tubes were cultivated at 37° C. and under 5 percent CO2 for 32 hours. Then the changes of the pH values of gels were tested. The gels were smeared, Gram stained, and microscopically examined for the morphology and quantity of bacteria.

SMILES | number of the nine Candida albicans strains that grew ([1]; 0.125 percent (weight/volume)) | pH value ([2]; 0.1 % in test gel) | pH value ([2]; 0.2 % in test gel) | pH value ([2]; 0.3 % in test gel) | pH value ([2]; 0.4 % in test gel) | pH value ([2]; 0.5 % in test gel) | pH value ([2]; 0.6 % in test gel) | pH value ([2]; 0.7 % in test gel) | number of the nine Candida albicans strains that grew ([1]; 0.050 percent (weight/volume)) | pH value ([2]; 0.15 % in test gel) | pH value ([2]; 0.25 % in test gel) | pH value ([2]; 0.35 % in test gel) | pH value ([2]; 0.45 % in test gel)
CCC(=O)[O-].[Na+] [sodium propionate] | six | 3.8 | 3.8 | 3.8 | 4.4 | 4.4-4.6 | 4.6 | 4.8 |  |  |  |  | 
OCCc1ccccc1 [2-phenylethanol] |  |  | <3.8 | <3.8 | 4.4 | 4.8 |  |  | seven | <3.8 | <3.8 | 3.8-4.1 | 4.6
